Here are results for two compounds from paper PMC9323911, “Comparative Metabolomics Study of the Impact of Articaine and Lidocaine on the Metabolism of SH-SY5Y Neuronal Cells” (Metabolites, 2022).

The subject of data set [1] is SH-SY5Y cells. The data set is described as follows: 1H NMR metabolic profiling of cell lipid extracts. The data set is classed as cell-based, human. As to conditions: lipid extract, vs control. As to the method:
After reaching semiconfluence, 10 mL of cells (1 × 10^6 cells/mL) were plated on 90 mm diameter culture dishes and incubated for 24 h. […] Afterward, the medium was collected and the dishes washed with cold PBS, immediately before the solvent extraction procedure described below. Unexposed cells were used as controls. Each assay comprised duplicates of each condition and three independent assays were performed, giving a total of 6 replicates per condition.
The culture medium was collected from each plate (including cell-free medium incubated under the same conditions) in conical tubes and centrifuged at 1000× g for 10 min. Furthermore, 300 µL of the supernatant were collected for protein precipitation, as described by Kostidis et al.. Briefly, 600 µL of 100% methanol (v/v) at −80 °C were added to the collected supernatant ([…]). The mixture was kept at −20 °C for 30 min and centrifuged at 13,000× g for 20 min. The supernatant was transferred to another tube and vacuum dried (SpeedVac, Eppendorf, Hamburg, Germany). For extracting cellular metabolites, a biphasic extraction protocol (methanol:chloroform:water; 1:1:0.7) was used as previously described. The resulting polar extracts were dried under vacuum in a Speedvac concentrator, and the lipophilic extracts were dried under a nitrogen flow. All extracts were stored at −80 °C prior to NMR analysis.
For NMR analysis, dried aqueous and lipid extracts were dissolved, respectively, in 600 μL of deuterated phosphate buffer (PBS 100 mM, pH 7.4) containing 0.1 mM 3-(trimethylsilyl) propionic acid (TSP-d4), and 600 μL of deuterated chloroform containing 0.03% tetramethylsilane (TMS). After transferring 550 μL of each sample to 5 mm NMR tubes, analysis was performed on a Bruker Avance III HD 500 NMR spectrometer (University of Aveiro, Portuguese NMR Network) operating at 500.13 MHz for ^1H observation, at 298 K. Standard 1D ^1H spectra (pulse programs ‘noesypr1d’ and ‘zg’ for aqueous and lipid samples, respectively) were recorded with 32 k points, 7002.80 Hz spectral width, a 2 s relaxation delay and 512 scans. […]. Two-dimensional NMR spectra, namely, ^1H-^1H TOCSY, J-resolved and ^1H-^13C HSQC spectra, were also recorded for selected samples to aid metabolite identification. Signal assignment was based on matching 1D and 2D spectral information to reference spectra available in Chenomx 9.0 (Edmonton, AB, Canada), BBIOREFCODE-2–0–0 (Bruker Biospin, Rheinstetten, Germany) and HMDB.
To provide a quantitative measurement of metabolic variations, spectral integration and total area normalization of selected signals (vide Supplementary Table S1) were carried out in Amix-Viewer 3.9.15 (Bruker Biospin, Rheinstetten, Germany). For each metabolite, the percentage of variation (or fold change) in exposed samples was calculated relative to respective controls, along with the effect size (ES) and statistical significance (p-value). The variations with larger magnitude (|ES| > 0.8) were expressed in a heatmap. Loadings profiles and heatmap figures were generated using the R software version 4.1.3 (R Core Team (2020). R: A language and environment for statistical computing. R Foundation for Statistical Computing, Vienna, Austria. URL http://www.R-project.org/ accessed 23 May 2022).

Details of data set [2]: method as in PMID 31172838. As to conditions: ATC vs LDC; cited from earlier work.
On the set-up of data set [3]: method as in PMID 31172838. The following applies: neutral species; cited from earlier work.
For data set [4] the following is noted: cited from earlier work.
In data set [5] the test system is SH-SY5Y cells. The following applies: cited from earlier work.
Data set [6] deals with neuronal cells of a different lineage (SHEP). As to conditions: 24 h; cited from earlier work.

“Also recorded” adds a separate entry of the source. Structures can show the parent of a compound that is named as a salt.

For orientation: Aqueous solubility means how much of the substance goes into solution per volume. Regarding `CCCNC(C)C(=O)Nc1c(C)csc1C(=O)OC` (stereo not drawn) [ATC, Articaine hydrochloride], in the data set with SH-SY5Y cells [1] (IC50, 24 h), the cholesterol level result is listed as “significant decrease”, the cholesteryl esters level result is given as “prominent increase; also recorded: increased”, the phospholipids level entry was “decreases” and the triglycerides level result is “decreases”. Moreover, the “fold lower egg phosphatidylcholine/aqueous buffer partition coefficient (P) than LDC” value in data set [2] is given as 10 ×. Also, in data set [3], the Aqueous solubility was 62.1 mM. Also, the Plasma half-life in data set [4] is 20 min. Moreover, in the data set with SH-SY5Y cells [5] (5 min exposure), the “effect on cells at very short exposure” value is “no effect”. Besides, the LD50 with SH-SY5Y cells [5] (20 min incubation of SH-SY5Y cells) is recorded as 9.0 mM. The LD50 in data set [6] is 13.4 mM.

For `CCN(CC)CC(=O)Nc1c(C)cccc1C` [LDC, lidocaine hydrochloride], in the data set with SH-SY5Y cells [1] (24 h), the “phosphatidylcholine (PtC) level” value was “decrease”. The triglycerides level entry with SH-SY5Y cells [1] (IC50, 24 h) is listed as “accumulated; also recorded: increased”.
